# Reference: patent US8513303B2, “Antimicrobial agent” (De Montfort University, priority 2007, dated 2013)
# System: Pseudomonas aeruginosa ATCC 15442
# Assay: Quantitative suspension test, log10 reduction in bacterial numbers
# Type: cell-based
# Settings: 0.5% w/v H2O2; for log reduction: 35° C.
# From the text: Neutralisation (nullification of activity) of antimicrobial agents is required to prevent inhibitory concentrations from being transferred to the recovery medium (as discussed, for example, in Russell A. D. (2004) Factors influencing the efficacy of antimicrobial agents in Principles and Practice of Disinfection Preservation and Sterilization, 4th edition, eds Fraise A. P., Lambert P. A. and Maillard J. Y., pages 98-127, Oxford: Blackwell Publishing Ltd. and Russell A. D., Ahonkhai I. and Rogers, D. T. (1979) A review: microbiological applications of the inactivation of antibiotics and other antimicrobial agents. Journal of Applied Bacteriology, 46, 207-245). Thus, samples were removed at desired time points and then any hydrogen peroxide present in the sample was neutralised (i.e. deactivated) using catalase.
# In the examples, catalase from bovine liver was used to neutralise the activity of any remaining hydrogen peroxide (as described in Russell A. D., Ahonkhai I. and Rogers, D. T. (1979), A review: microbiological applications of the inactivation of antibiotics and other antimicrobial agents, Journal of Applied Bacteriology, 46, 207-245) after the appropriate contact time during the experiments. Control experiments were conducted to establish whether the neutraliser nullified the activity of hydrogen peroxide and whether the neutraliser was toxic to the micro-organisms tested.
# The effect of acidic pH conditions (pH 3.47 to 3.54) were investigated with and without hydrogen peroxide and air.
# A quantitative suspension test (as described in Reybrouck G. (1998), The testing of disinfectants, International Biodeterioration and Biodegradation, 41, 269-272) based on the general principles of European quantitative suspension tests (BS EN1040:2005: Chemical disinfectants and antiseptics, Quantitative suspension test for the evaluation of basic bactericidal activity of chemical disinfectants and antiseptics, Test method and requirements (phase 1), London: British Standards Institute; BS EN 1276:1997: Chemical disinfectants and antiseptics, Quantitative suspension test for the evaluation of bactericidal activity of chemical disinfectants and antiseptics used in food, industrial, domestic, and institutional areas, Test method and requirements (phase 2, step 1). London: British Standards Institute) was used to establish the basic level of activity of the catalyst in the absence of organic matter. All tests were performed independently at least three times unless otherwise stated. Low concentrations (0.2-1% w/v) of hydrogen peroxide were used so that increases in antimicrobial activity could be detected if present.
# Bacteria were inoculated into 10 ml volumes of nutrient broth and incubated at 37° C. for 18 to 24 hours at a shaking speed of 100 revolutions/minute. After incubation, the bacteria were washed by centrifugation to remove the nutrient broth; supernatants were discarded and the bacterial pellets were resuspended in sterilised distilled water. 7.5 ml of the washed bacterial suspension was added to 67.5 ml of hydrogen peroxide and/or distilled water to give a specific final concentration (ranging from 0 to 1% w/v—see Tables below) of hydrogen peroxide and approximately 8 log10 colony forming units (CFU)/mL of bacteria. The resultant mixture was stirred magnetically throughout the experiment. Where applicable, 1 g (+/−0.1 g) of either modified PAN fibre (referred to as PAN1 (control) or PAN2 (control)) or catalyst (referred to as PAN1 catalyst or PAN2 catalyst or PAN3 catalyst) comprising PAN fibres was added to the resultant mixture. The experiments were performed with or without air. If air was used, 2.5 L/min was supplied via. a filtered air pump and a sterilised Pyrex gas distribution tube.
# After a specific contact time (see Tables below), 1 ml aliquots were removed from the experimental flask and transferred into 9 ml of neutraliser (catalase) for 5 minutes to inactivate any remaining hydrogen peroxide.
structure (smiles),measurement,setting,value
"OO [Example H2O2, hydrogen peroxide]",Mean log10 reduction in CFU/ml,"air 2.5 L/min, 10 min",0.36 (0.13) log10 CFU/ml
same,Mean log10 reduction in CFU/ml,"air 2.5 L/min, 20 min",0.53 (0.10) log10 CFU/ml
same,Mean log10 reduction in CFU/ml,"air 2.5 L/min, 30 min",0.55 (0.18) log10 CFU/ml
same,Mean log10 reduction in CFU/ml,"air 2.5 L/min, 40 min",0.59 (0) log10 CFU/ml
same,Mean log10 reduction in CFU/ml,"air 2.5 L/min, 50 min",0.72 (0.07) log10 CFU/ml
same,Mean log10 reduction in CFU/ml,"air 2.5 L/min, 50 min, listed as hydrogen peroxide",0.72 log10 CFU/ml
same,Mean log10 reduction in CFU/ml,"air 2.5 L/min, 60 min",0.50 (0.09) log10 CFU/ml
same,Mean log10 reduction in CFU/ml,"air 2.5 L/min, 60 min, listed as hydrogen peroxide",0.5 log10 CFU/ml
same,Mean log10 reduction in CFU/ml,"no air, 10 min",0.52 (0.12) log10 CFU/ml
same,Mean log10 reduction in CFU/ml,"no air, 20 min",0.81 (0.24) log10 CFU/ml
same,Mean log10 reduction in CFU/ml,"no air, 30 min",0.88 (0.25) log10 CFU/ml
same,Mean log10 reduction in CFU/ml,"no air, 40 min",0.86 (0.32) log10 CFU/ml
same,Mean log10 reduction in CFU/ml,"no air, 50 min",0.87 (0.28) log10 CFU/ml
same,Mean log10 reduction in CFU/ml,"no air, 60 min",0.97 (0.22) log10 CFU/ml
same,Mean log10 reduction in CFU/ml,"no air, 60 min, listed as hydrogen peroxide",0.97 log10 CFU/ml
same,log reduction,"not buffered, air, 10 min",1.80 log
same,log reduction,"not buffered, air, 20 min",2.42 log
same,log reduction,"not buffered, air, 60 min",3.61 log
same,log reduction,"not buffered, no air, 10 min",2.51 log
same,log reduction,"not buffered, no air, 40 min",4.15 log
same,log reduction,"not buffered, no air, 60 min",4.45 log
same,Mean log10 reduction in CFU/ml,"acidic pH 3.47 to 3.54, air 2.5 L/min, 10 min",2.53 log10 CFU/ml
same,Mean log10 reduction in CFU/ml,"acidic pH 3.47 to 3.54, air 2.5 L/min, 20 min",3.41 log10 CFU/ml
same,Mean log10 reduction in CFU/ml,"acidic pH 3.47 to 3.54, air 2.5 L/min, 30 min",4.25 log10 CFU/ml
same,Mean log10 reduction in CFU/ml,"acidic pH 3.47 to 3.54, air 2.5 L/min, 40 min",≧4.81 log10 CFU/ml
same,Mean log10 reduction in CFU/ml,"acidic pH 3.47 to 3.54, air 2.5 L/min, 50 min",≧5.34 log10 CFU/ml
same,Mean log10 reduction in CFU/ml,"acidic pH 3.47 to 3.54, air 2.5 L/min, 50 min, listed as hydrogen peroxide",greater than 5 log10 CFU/ml
same,Mean log10 reduction in CFU/ml,"acidic pH 3.47 to 3.54, air 2.5 L/min, 60 min",≧5.34 log10 CFU/ml
same,Mean log10 reduction in CFU/ml,"acidic pH 3.47 to 3.54, no air, 10 min",2.30 log10 CFU/ml
same,Mean log10 reduction in CFU/ml,"acidic pH 3.47 to 3.54, no air, 20 min",2.76 log10 CFU/ml
same,Mean log10 reduction in CFU/ml,"acidic pH 3.47 to 3.54, no air, 30 min",3.71 log10 CFU/ml
same,Mean log10 reduction in CFU/ml,"acidic pH 3.47 to 3.54, no air, 40 min",3.88 log10 CFU/ml
same,Mean log10 reduction in CFU/ml,"acidic pH 3.47 to 3.54, no air, 50 min",4.52 log10 CFU/ml
same,Mean log10 reduction in CFU/ml,"acidic pH 3.47 to 3.54, no air, 60 min",4.83 log10 CFU/ml
same,Mean log10 reduction in CFU/ml,"room temperature, not buffered, air 2.5 L/min, 10 min",0.49 log10 CFU/ml
same,Mean log10 reduction in CFU/ml,"room temperature, not buffered, air 2.5 L/min, 20 min",0.70 log10 CFU/ml
same,Mean log10 reduction in CFU/ml,"room temperature, not buffered, air 2.5 L/min, 30 min",0.70 log10 CFU/ml
same,Mean log10 reduction in CFU/ml,"room temperature, not buffered, air 2.5 L/min, 40 min",0.80 log10 CFU/ml
same,Mean log10 reduction in CFU/ml,"room temperature, not buffered, air 2.5 L/min, 50 min",0.81 log10 CFU/ml
same,Mean log10 reduction in CFU/ml,"room temperature, not buffered, air 2.5 L/min, 60 min",0.63 log10 CFU/ml
same,Mean log10 reduction in CFU/ml,"room temperature, not buffered, no air, 10 min",0.58 log10 CFU/ml
same,Mean log10 reduction in CFU/ml,"room temperature, not buffered, no air, 20 min",1.00 log10 CFU/ml
same,Mean log10 reduction in CFU/ml,"room temperature, not buffered, no air, 30 min",1.00 log10 CFU/ml
same,Mean log10 reduction in CFU/ml,"room temperature, not buffered, no air, 40 min",1.00 log10 CFU/ml
same,Mean log10 reduction in CFU/ml,"room temperature, not buffered, no air, 50 min",1.02 log10 CFU/ml
same,Mean log10 reduction in CFU/ml,"room temperature, not buffered, no air, 60 min",1.12 log10 CFU/ml
